Measurements as given in ChEMBL document CHEMBL1152032, “Inhibition of interleukin-1 converting enzyme by N-Acyl-aspartic acid ketones” (Bioorg Med Chem Lett, 1995).

Biological target: T1, Caspase-1 (Homo sapiens, UniProt P29466)
T1 sequence (P29466 whole entry): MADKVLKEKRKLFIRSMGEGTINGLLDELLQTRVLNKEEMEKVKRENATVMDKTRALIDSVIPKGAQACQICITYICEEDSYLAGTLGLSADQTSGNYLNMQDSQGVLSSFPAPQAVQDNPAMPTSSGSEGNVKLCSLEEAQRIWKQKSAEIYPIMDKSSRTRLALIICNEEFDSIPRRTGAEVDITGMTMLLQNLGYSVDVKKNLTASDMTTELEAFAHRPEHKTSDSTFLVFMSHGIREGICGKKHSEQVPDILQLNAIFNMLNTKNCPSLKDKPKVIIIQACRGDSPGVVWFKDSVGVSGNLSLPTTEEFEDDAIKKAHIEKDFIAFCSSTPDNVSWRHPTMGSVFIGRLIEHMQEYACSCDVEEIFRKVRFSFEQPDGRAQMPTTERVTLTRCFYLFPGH
Assay: Inhibition of IL-1 beta converting enzyme (ICE) in human blood monocytes
Assay type: cell-based

| Structure (SMILES) | Ki [µM] |
| --- | --- |
| C=CCOC(=O)N[C@@H](CC(=O)O)C(=O)COC(=O)NCc1ccccc1 | 74 |
| C=CCOC(=O)N[C@@H](CC(=O)O)C(=O)CNCc1ccccc1 | > 100 |
| CC(=O)N[C@@H](Cc1ccc(O)cc1)C(=O)N[C@H](C(=O)N[C@@H](C)C(=O)N[C@@H](CC(=O)O)C(=O)CCCCc1ccccc1)C(C)C | 42 |
| C=CCOC(=O)N[C@@H](CC(=O)O)C(=O)CN(C)CCc1ccccc1 | > 100 |
| C=CCOC(=O)N[C@@H](CC(=O)O)C(=O)COC(=O)/C=C/c1ccccc1 | 90 |
| C=CCOC(=O)N[C@@H](CC(=O)O)C(=O)COC(=O)CCC1CCCCC1 | 3.5 |
| C=CCOC(=O)N[C@@H](CC(=O)O)C(=O)COC(=O)CCOc1ccccc1 | 23 |

The remaining lines, values ahead:

| Ki [µM] | Structure (SMILES) |
| --- | --- |
| > 100 | C=CCOC(=O)N[C@@H](CC(=O)O)C(=O)CNC(c1ccccc1)c1ccccc1 |
| 27 | C=CCOC(=O)N[C@@H](CC(=O)O)C(=O)CSCCCc1ccccc1 |
| 20 | C=CCOC(=O)N[C@@H](CC(=O)O)C(=O)COC(=O)CCc1ccccc1 |
| 24 | O=C(O)C[C@H](NC(=O)OCc1ccccc1)C(=O)COCCCc1ccccc1 |
| 70 | C=CCOC(=O)N[C@@H](CC(=O)O)C(=O)CNC(Cc1ccccc1)c1ccccc1 (stereo partly specified) |
| > 100 | C=CCOC(=O)N[C@@H](CC(=O)O)C(=O)CCCCc1ccccc1 |
| 67 | C=CCOC(=O)N[C@@H](CC(=O)O)C(=O)CNCCCc1ccccc1 |
| 4.4 | C=CCOC(=O)N[C@@H](CC(=O)O)C(=O)CNCCc1ccccc1 |
| 68 | C=CCOC(=O)N[C@@H](CC(=O)O)C(=O)CN(CCc1ccccc1)Cc1ccccc1 |
